Data set [1] relates to ex vivo-cultured arthritic B cells. Kind of data set: Ahr expression (RT-qPCR) in ex vivo-cultured arthritic B cells. The settings on record: 20 μM AzaC, FIG. 1(J). Format: cell-based, mouse. The source says:
Primary mouse cells were collected from the spleens, on day 9 after the third PG injection. B cells were purified using antibody-coated magnetic beads (StemCell Technologies). RNA was isolated from purified mouse lymphocytes using a TRI reagent (Sigma-Aldrich) immediately after separation.
(In qPCR the cycle at which signal appears reflects the starting amount.)

Data set [2] deals with B cells of mice with PGIA. Nature of the data set: Molecular, cellular and histological analyses of AzaC-treated PGIA mice. The class given is in vivo, BALB/c mice. The source says:
RNA isolation, cDNA synthesis, and quantitative reverse transcription-polymerase chain reaction (qRT-PCR): Total RNA from cell culture was isolated using QIAmp RNA Blood Kit (Qiagen) or Direct-Zol™ RNA miniprep Kit (Zymo Research). Each RNA sample was digested with 4U of TurboDNase™ (Ambion) and purified with RNA clean and concentrator-5 (Zymo Research) and samples quantified using NanoDrop 1000 spectrophotometer. Primary mouse cells were collected from the spleens, on day 9 after the third PG injection. B cells were purified using antibody-coated magnetic beads (StemCell Technologies). RNA was isolated from purified mouse lymphocytes using a TRI reagent (Sigma-Aldrich) immediately after separation.
Genomic DNA (gDNA) purification, Global DNA methylation assessment and Methylated CpG island ecovery assay (MIRA)-assisted microarray (MIRA-chip) and data analysis: gDNA was isolated from affinity purified B cells using QIAamp DNA Mini Kit (Qiagen). Global DNA methylation analysis was performed using Imprint Methylated DNA Quantification kit (Sigma-Aldrich). Experiments were conducted according to manufacturer instructions MIRA enrichment of methylated gDNA fractions were performed by MethylCollector™ Ultra kit (Active Motif), captured fractions were labeled and hybridized to microarrays harboring all mouse promoters and CpG island outside of the promoter regions (NimbleGene). Data analysis was performed as described before.
In another embodiment, the effect of AzaC treatment on germinal center (GC) formation in animals was investigated. Germinal center formation was examined in control (DDA adjuvant-injected and arthritic non-treated) and arthritic AzaC-treated mice (FIG. 4(C-D)). […] Joint-draining lymph nodes (FIG. 4(C)) and spleens (FIG. 4(D)). DDA-injected (adjuvant control), vehicle-treated mice with PGIA and AzaC-treated mice with PGIA. Green-GL7 (activated B and T cell marker), Red-CD45/B220 (B cells), Blue-CD4 & CD8a (T cells). Arrows point to GCs. GC %-percentage of GC-containing follicles observed in the investigated lymph nodes and spleens (n=36 follicles from LNs, n=106 follicles from spleens). Green sidebars-percentage of GC carrying follicles. Red sidebars are follicles without GC.

Data set [3] relates to proteoglycan-induced arthritis (PGIA). Nature of the data set: Prophylactic AzaC treatment of mice with PGIA. Format: in vivo, BALB/c mice. To be noted: prophylactic AzaC i.p. every other day from 10 days before expected onset. As to the method:
(§1) Mice: Retired breeder female BALB/c mice were purchased from the National Cancer Institute (NCI) and were used for the generation of cartilage proteoglycan-induced arthritis (PGIA). Briefly, the mice were immunized with PG purified from knee joint cartilage osteoarthritis patients who had undergone joint replacement surgery. PG was injected intraperitoneally (IP) 3 times (at 3-week intervals, 100 μg PG core protein/injection) with 2 mg of dimethyl-dioctadecyl-ammonium bromide adjuvant into BALB/c mice. Mice with acute arthritis were sacrificed 9 days after the 3rd PG immunization. Animal experiments were approved by the Institutional Animal Care and Use Committee at Rush University Medical Center, Chicago, Ill. […] Additional characteristics of RA are also present in other rodent models, but the above listed phenotypes and genotypes are present together only in PGIA.
First, the prophylactic effect of AzaC on arthritis development in mice with PGIA was investigated. AzaC treatment was started 10 days before the expected PGIA onset (on day 40 of the immunization) and was administered intraperitoneally (i.p.) every other day. The control group received saline solution (FIG. 3(A)). […] Female BALB/c mice were immunized 3 times with PG. Limbs were inspected regularly after the third PG injection for signs of arthritis, and a visual arthritis score was assigned to all paws. […]

A further data set concerns A20 cells. Kind of data set: Western blot of subcellular fractions of AzaC treated A20 cells. Format: cell-based, mouse. As to the method:
Western blot analyses: AzaC treated A20 cells (10 μM AzaC for 72 hours) washed with PBS, nuclear and cytoplasmic extracts were prepared from 8×10^6 cells using Nuclei EZ Prep kit (Sigma-Aldrich) according to the manufacturer's protocol. Protein extracts were separated on a 4-10% SDS-polyacrylamide gel (Bio-Rad Laboratories) and blotted onto Immuno-Blot membrane (Bio-Rad Laboratories). Western blots were serially probed with anti-AhR, anti-Lamin-B1 and glyceraldehyde-3-phosphate dehydrogenase (GAPDH) (Santa Cruz Biotechnologies) antibodies. ECL Western Blotting Substrate (ThermoScientific) was used for detection.
For orientation: In western blotting, separated proteins are transferred to a membrane and probed.

Data set [4] relates to proteoglycan-induced arthritis (PGIA). Kind of data set: Therapeutic AzaC treatment of established PGIA. Format: in vivo, BALB/c mice. To be noted: AzaC i.p. every other day after first symptoms (score ≥2), 2 mg/kg. As to the method:
as §1
In the therapeutic AzaC treatment group, arthritic mice were i.p. injected with either AzaC or vehicle on every other day following the first symptoms of arthritis, when the visual arthritis score was at least ≥2 per animal (FIG. 3(B)).

Data set [5] deals with B cells of mice with PGIA. Nature of the data set: Molecular, cellular and histological analyses of AzaC-treated PGIA mice. The class given is in vivo, BALB/c mice. The source holds these as a separate data set.
For data set [6] the following is noted: cancer patients, effective dose; cited from earlier work.
The mark [7] stands for this setting: B cells of AzaC-treated PGIA mice, RT-qPCR.

Entries after “also recorded” stand apart in the source; their conditions may differ.

Turning to `Nc1ncn([C@@H]2O[C@H](CO)[C@@H](O)[C@H]2O)c(=O)n1` [AzaC, 4-Amino-1-(β-D-ribofuranosyl)-1,3,5-triazin-2(1H)-one], in data set [1], the Ahr expression result is on record as “restored”. In data set [2] (setting [7]), the “Ahr expression in vivo” value is on record as “restore Ahr expression in vivo; also recorded: increased Ahr expression; also recorded: sufficient for releasing Ahr expression from DNA methylation-mediated blockage; also recorded: reactivated” and the “Aicda expression in vivo” value was “markedly inhibited; also recorded: downregulation of Aicda expression”. In addition, in data set [2] (B cells of AzaC-treated arthritic mice), the “DNA methylation level of Ahr promoter (MIRA)” value is reported as “erased arthritis-associated DNA hypermethylation; also recorded: reduced”. The “Germinal center (GC) formation” value in data set [2] (spleen and draining lymph nodes) was “seriously impaired GC development and reduced GC number; also recorded: diminished; also recorded: impaired GC formation”. The “Post-recombinant IgG1 transcript level (class switch recombination)” value in data set [2] (splenic B cells of AzaC-treated PGIA mice, qRT-PCR) is “significantly decreased”. Besides, in data set [3], the “Development of PGIA (signs of disease)” value is recorded as “No sign of the disease was observed; also recorded: prevents the development of arthritis; also recorded: prevents PGIA development”. For the same compound, the “Translocation of AhR into nuclei” value in the data set with A20 cells (10 μM AzaC for 72 hours, Western blot) is given as “translocation of the translated product into A20 nuclei; also recorded: AhR translocated into the nucleus without adding specific agonist”. In addition, the “Aicda protein level in cytoplasmic fraction” value in the data set with A20 cells (Western blot, FIG. 2(E)) is reported as “downregulation could be also observed at protein level; also recorded: reduces Aicda level”. Moreover, in the data set with A20 cells (Western blotting), the AhR protein level result is recorded as “elevated AhR protein level was not detected”. The “Swelling and progression of established PGIA” value in data set [4] is “significantly reduce swelling and halt the progression of PGIA; also recorded: very effective; also recorded: no detectable signs of PGIA after the second AzaC injection; also recorded: halted the progression of PGIA; also recorded: clinical symptoms of RA were abolished”. In addition, the “Histology of ankle joints” value in data set [5] (AzaC-treated arthritic versus naive (non-immunized) ankles) is recorded as “no detectable histological differences”. In data set [5] (bone marrow, flow cytometry), the “Immature B cell number” value was “significant decrease” and the Plasma cell number result is given as “reduced, but statistically not significant alteration”. The “Autoantibody titer (human PG-specific IgG1, ELISA)” value in data set [5] (sera of AzaC-treated PGIA mice) is listed as “diminish autoantibody production; also recorded: significantly reduced”. The “Splenic marginal zone (MZ) and follicular B cell populations” value in data set [5] (spleen, flow cytometry) is recorded as “no significant change”. In data set [6], the “Adverse drug events / side effects” value is “triggers cytotoxicity and induces nausea, vomiting, fevers, diarrhea, rigors and many other side effects; also recorded: induces severe adverse drug events (ADEs)”.

(Values after patent US11992500B2, “Use of methylation inhibitors for the treatment of autoimmune diseases” (Rush University Medical Center, priority 2018, dated 2024).)
